In US20230139171A1 (SITA Information Networking Computing UK Limited, priority 2019, published 2023):

Experiments:
Assay type in all cases: cell-based
human TLR9 = target: T1, human TLR9 (Homo sapiens, UniProt Q9NR96); test: TLR9 inhibition reporter assay (HEK-Blue cells, SEAP reporter, ODN2006 stimulation); details: HEK-Blue cells overexpressing human TLR9, SEAP reporter, ODN2006 5 nM
T1 construct: host or cells: HEK-Blue cells
T1 sequence (Q9NR96 26-1032): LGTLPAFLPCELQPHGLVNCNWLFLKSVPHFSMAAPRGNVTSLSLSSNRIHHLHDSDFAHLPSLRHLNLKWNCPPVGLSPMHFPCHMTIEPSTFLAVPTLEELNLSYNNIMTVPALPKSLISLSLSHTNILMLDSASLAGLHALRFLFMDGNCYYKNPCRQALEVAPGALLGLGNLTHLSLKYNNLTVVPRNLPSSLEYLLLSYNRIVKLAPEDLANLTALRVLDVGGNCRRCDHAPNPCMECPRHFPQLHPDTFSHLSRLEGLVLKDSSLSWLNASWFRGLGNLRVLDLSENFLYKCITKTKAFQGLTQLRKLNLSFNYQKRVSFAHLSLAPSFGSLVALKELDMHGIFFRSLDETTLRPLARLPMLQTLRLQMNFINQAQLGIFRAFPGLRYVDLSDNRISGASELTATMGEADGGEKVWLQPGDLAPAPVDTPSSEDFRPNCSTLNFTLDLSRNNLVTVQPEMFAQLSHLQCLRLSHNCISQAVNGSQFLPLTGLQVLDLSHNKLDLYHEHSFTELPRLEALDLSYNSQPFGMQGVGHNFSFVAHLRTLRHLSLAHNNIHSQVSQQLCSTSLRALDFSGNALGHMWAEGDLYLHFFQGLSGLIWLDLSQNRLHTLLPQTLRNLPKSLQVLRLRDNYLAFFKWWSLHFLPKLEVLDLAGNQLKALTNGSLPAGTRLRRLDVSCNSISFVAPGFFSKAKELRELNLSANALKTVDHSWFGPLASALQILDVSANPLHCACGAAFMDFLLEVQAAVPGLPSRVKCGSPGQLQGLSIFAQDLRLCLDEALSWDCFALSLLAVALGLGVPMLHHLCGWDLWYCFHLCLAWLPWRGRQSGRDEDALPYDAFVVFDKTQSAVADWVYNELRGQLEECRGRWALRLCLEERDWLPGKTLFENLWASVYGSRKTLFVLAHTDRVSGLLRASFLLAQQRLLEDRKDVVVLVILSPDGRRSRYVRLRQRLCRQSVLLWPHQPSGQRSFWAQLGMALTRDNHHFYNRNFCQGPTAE
Method in brief: (§1)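 Compound treatment: 30 min, RT, 0.05 nM–50 μM final. Agonist: TLR7 gardiquimod 7.5 μM; TLR8 R848 15.9 μM; TLR9 ODN2006 5 nM. Incubation 22 h, 37 °C, 5% CO2. Readout SEAP, HEK-Blue Detection.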

human TLR7 = target: T2, human TLR7 (Homo sapiens, UniProt Q9NYK1); test: TLR7 inhibition reporter assay (HEK-Blue cells, SEAP reporter, gardiquimod stimulation); details: HEK-Blue cells overexpressing human TLR7, SEAP reporter, gardiquimod 7.5 μM; read-out: TLR7 IC50
T2 construct: host or cells: HEK-Blue cells
T2 sequence (Q9NYK1 27-1049): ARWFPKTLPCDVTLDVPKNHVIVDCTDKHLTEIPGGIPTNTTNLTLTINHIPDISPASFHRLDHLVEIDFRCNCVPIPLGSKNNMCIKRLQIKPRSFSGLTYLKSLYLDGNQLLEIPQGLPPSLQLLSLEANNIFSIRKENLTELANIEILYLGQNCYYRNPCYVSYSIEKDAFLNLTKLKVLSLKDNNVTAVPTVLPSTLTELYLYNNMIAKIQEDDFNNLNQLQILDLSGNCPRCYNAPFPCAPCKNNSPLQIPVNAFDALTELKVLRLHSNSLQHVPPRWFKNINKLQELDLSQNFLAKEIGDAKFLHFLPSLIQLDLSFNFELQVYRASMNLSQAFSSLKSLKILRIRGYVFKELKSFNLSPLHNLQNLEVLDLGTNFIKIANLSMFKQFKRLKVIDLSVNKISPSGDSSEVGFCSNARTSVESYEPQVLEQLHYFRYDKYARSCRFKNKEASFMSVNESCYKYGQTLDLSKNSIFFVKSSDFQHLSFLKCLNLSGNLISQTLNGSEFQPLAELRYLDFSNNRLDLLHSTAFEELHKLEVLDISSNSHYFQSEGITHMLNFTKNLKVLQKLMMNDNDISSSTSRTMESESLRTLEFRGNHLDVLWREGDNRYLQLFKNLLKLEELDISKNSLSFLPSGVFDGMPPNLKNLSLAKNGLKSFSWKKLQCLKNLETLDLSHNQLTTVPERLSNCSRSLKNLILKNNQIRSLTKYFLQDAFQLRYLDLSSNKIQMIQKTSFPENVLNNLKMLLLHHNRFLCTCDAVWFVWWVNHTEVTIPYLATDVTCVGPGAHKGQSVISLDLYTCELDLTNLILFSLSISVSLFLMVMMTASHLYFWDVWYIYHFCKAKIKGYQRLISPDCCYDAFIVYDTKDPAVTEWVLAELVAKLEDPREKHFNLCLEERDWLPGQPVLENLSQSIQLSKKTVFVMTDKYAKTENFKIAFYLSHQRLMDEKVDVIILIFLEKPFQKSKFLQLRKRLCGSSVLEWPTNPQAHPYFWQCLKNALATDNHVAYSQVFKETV
Method in brief: as §1

human TLR8 = target: T3, human TLR8 (Homo sapiens, UniProt Q9NR97); test: TLR8 inhibition reporter assay (HEK-Blue cells, SEAP reporter, R848 stimulation); details: HEK-Blue cells overexpressing human TLR8, SEAP reporter, R848 15.9 μM; read-out: TLR8 IC50
T3 construct: host or cells: HEK-Blue cells
T3 sequence (Q9NR97 27-1041): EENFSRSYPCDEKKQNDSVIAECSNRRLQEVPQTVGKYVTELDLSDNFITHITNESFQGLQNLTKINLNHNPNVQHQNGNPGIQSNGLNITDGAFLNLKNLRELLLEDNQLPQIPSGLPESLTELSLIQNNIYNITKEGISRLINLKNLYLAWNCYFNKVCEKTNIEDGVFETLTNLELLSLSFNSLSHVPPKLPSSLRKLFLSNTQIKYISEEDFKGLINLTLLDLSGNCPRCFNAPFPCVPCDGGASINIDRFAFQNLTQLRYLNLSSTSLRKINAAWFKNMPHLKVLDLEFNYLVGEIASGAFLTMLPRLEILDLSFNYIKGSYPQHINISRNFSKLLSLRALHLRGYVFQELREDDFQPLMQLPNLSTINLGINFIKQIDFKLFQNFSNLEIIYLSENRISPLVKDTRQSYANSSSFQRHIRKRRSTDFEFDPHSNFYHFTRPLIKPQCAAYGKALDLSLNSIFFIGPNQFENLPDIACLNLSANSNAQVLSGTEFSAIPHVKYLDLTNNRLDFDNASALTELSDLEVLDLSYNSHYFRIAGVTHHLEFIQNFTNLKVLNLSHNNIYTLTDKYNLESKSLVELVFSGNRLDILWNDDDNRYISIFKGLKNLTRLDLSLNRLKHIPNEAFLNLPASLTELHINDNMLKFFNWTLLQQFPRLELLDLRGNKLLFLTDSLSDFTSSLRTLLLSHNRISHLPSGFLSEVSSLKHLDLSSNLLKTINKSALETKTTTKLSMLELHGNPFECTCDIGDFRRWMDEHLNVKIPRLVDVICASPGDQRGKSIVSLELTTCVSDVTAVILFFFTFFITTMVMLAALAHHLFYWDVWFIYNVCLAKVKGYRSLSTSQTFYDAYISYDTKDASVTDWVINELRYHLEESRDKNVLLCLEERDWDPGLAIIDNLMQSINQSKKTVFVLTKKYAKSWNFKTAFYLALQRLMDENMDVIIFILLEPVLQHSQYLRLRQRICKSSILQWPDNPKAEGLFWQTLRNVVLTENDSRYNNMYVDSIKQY
Method in brief: as §1

IC50 (human TLR9) [µM]	IC50 (human TLR7) [µM]	IC50 (human TLR8) [µM]	SMILES
3.43	0.00808	0.00827	Cc1cc(-c2[nH]c3sc(C4CCN(CC(=O)N(C)C)CC4)nc3c2C(C)C)cn2ncnc12 [Example 17, 2-(4-(6-isopropyl-5-(8-methyl-[1,2,4]triazolo[1,5-a]pyridin-6-yl)-4H-pyrrolo[3,2-d]thiazol-2-yl)piperidin-1-yl)-N,N-dimethylacetamide]
3.74	0.00569	0.00257	Cc1cc(-c2[nH]c3sc(C4CCN(CC(C)(C)O)CC4)nc3c2C(C)C)cn2ncnc12 [Example 18, 1-(4-(6-isopropyl-5-(8-methyl-[1,2,4]triazolo[1,5-a]pyridin-6-yl)-4H-pyrrolo[3,2-d]thiazol-2-yl)piperidin-1-yl)-2-methylpropan-2-ol]
5.94	0.0014	0.012	Cc1cc(-c2[nH]c3sc(C4CCN(C(=O)CN(C)C)CC4)nc3c2C(C)C)cn2ncnc12 [Example 19, 2-(dimethylamino)-1-(4-(6-isopropyl-5-(8-methyl-[1,2,4]triazolo[1,5-a]pyridin-6-yl)-4H-pyrrolo[3,2-d]thiazol-2-yl)piperidin-1-yl)ethan-1-one]
16.1	0.00369	0.00806	Cc1cc(-c2[nH]c3sc(C4CCN(C5COC5)CC4)nc3c2C(C)C)cn2ncnc12 [Example 20, 6-isopropyl-5-(8-methyl-[1,2,4]triazolo[1,5-a]pyridin-6-yl)-2-(1-(oxetan-3-yl)piperidin-4-yl)-4H-pyrrolo[3,2-d]thiazole]
> 50	0.00689	0.039	Cc1cc(-c2[nH]c3sc(C4CCN(C(C)C)CC4)nc3c2C(C)C)cn2ncnc12 [Example 21, 6-isopropyl-2-(1-isopropylpiperidin-4-yl)-5-(8-methyl-[1,2,4]triazolo[1,5-a]pyridin-6-yl)-4H-pyrrolo[3,2-d]thiazole]
4.85	0.00123	0.0009	Cc1cc(-c2[nH]c3sc(C4CCN(C5CCOCC5)CC4)nc3c2C(C)C)cn2ncnc12 [Example 22, 6-isopropyl-5-(8-methyl-[1,2,4]triazolo[1,5-a]pyridin-6-yl)-2-(1-(tetrahydro-2H-pyran-4-yl)piperidin-4-yl)-4H-pyrrolo[3,2-d]thiazole]
4.77	0.00127	0.00101	Cc1cc(-c2[nH]c3sc(C4CCN(CC5(C)COC5)CC4)nc3c2C(C)C)cn2ncnc12 [Example 23, 6-isopropyl-5-(8-methyl-[1,2,4]triazolo[1,5-a]pyridin-6-yl)-2-(1-((3-methyloxetan-3-yl)methyl)piperidin-4-yl)-4H-pyrrolo[3,2-d]thiazole]
0.793	0.0434	0.0125	Cc1cc(-c2[nH]c3sc(C4CCN(CC(=O)N(C)C)CC4)nc3c2C(C)C)cc(C)n1 [Example 24, 2-(4-(5-(2,6-dimethylpyridin-4-yl)-6-isopropyl-4H-pyrrolo[3,2-d]thiazol-2-yl)piperidin-1-yl)-N,N-dimethylacetamide]
0.447	0.0256	0.0103	Cc1cc(-c2[nH]c3sc(C4CCN(C(C)C)CC4)nc3c2C(C)C)cc(C)n1 [Example 25, 5-(2,6-dimethylpyridin-4-yl)-6-isopropyl-2-(1-isopropylpiperidin-4-yl)-4H-pyrrolo[3,2-d]thiazole]
7.21	0.442	0.413	Cc1cc(-c2[nH]c3sc(C4CCN(C5CCOCC5)CC4)nc3c2C(C)C)cc(C)n1 [Example 26, 5-(2,6-dimethylpyridin-4-yl)-6-isopropyl-2-(1-(tetrahydro-2H-pyran-4-yl)piperidin-4-yl)-4H-pyrrolo[3,2-d]thiazole]
0.388	0.0297	0.00287	Cc1cc(-c2[nH]c3sc(C4CCN(CC5(C)COC5)CC4)nc3c2C(C)C)cc(C)n1 [Example 27, 5-(2,6-dimethylpyridin-4-yl)-6-isopropyl-2-(1-((3-methyloxetan-3-yl)methyl)piperidin-4-yl)-4H-pyrrolo[3,2-d]thiazole]
0.645	0.039	0.265	Cc1cc(-c2[nH]c3sc(C4CCN(C(=O)CN(C)C)CC4)nc3c2C(C)C)cc(C)n1 [Example 28, 2-(dimethylamino)-1-(4-(5-(2,6-dimethylpyridin-4-yl)-6-isopropyl-4H-pyrrolo[3,2-d]thiazol-2-yl)piperidin-1-yl)ethan-1-one]
0.216	0.0184	0.00191	Cc1cc(-c2[nH]c3sc(C4CCN(CC(C)(C)O)CC4)nc3c2C(C)C)cc(C)n1 [Example 29, 1-(4-(5-(2,6-dimethylpyridin-4-yl)-6-isopropyl-4H-pyrrolo[3,2-d]thiazol-2-yl)piperidin-1-yl)-2-methylpropan-2-ol]
